From PMC11079024, “Identification of a family of species-selective complex I inhibitors as potential anthelmintics” (Nature Communications, 2024)
“And” between values parts separate entries of the source, which are not always exact repeats. Equal values may be shown once. Read-outs that look alike come from different tables or passages of the source.

System: anthelmintic/nematicide-resistant C. elegans mutant strains
Assay: microbe, parasite or virus in culture
Conditions: for LC50: Caenorhabditis elegans; for dose response data: mev-1 (tr355)
Source text: In addition to the Caenorhabditis elegans wild-type N2 strain, this work included the following C. elegans strains: CB1003 (kynu-1(e1003) X); anthelmintic-resistant strains—CB3474 (ben-1(e1880) III), CB193 (unc-29(e193) I), HY496 (bre-1(ye4) IV), RB2119 (acr-23(ok2804) V), JD608 (avr-14(ad1302) I; avr-15(ad1051) V; glc-1 (pk54) V), NM1968 (slo-1(js379) V), RP2635 (mev-1(tr355) III); benzimidazole-resistant CRISPR strains—ECA882 (ben-1(ean64) III), ECA917 (ben-1(ean98) III), ECA1075 (ben-1(ean143) III), ECA1080 (ben-1(ean148) III). This work also featured several additional free-living nematode strains: C. briggsae strain AF16, P. pacificus strain PS312, and P. hermaphrodita strain B178. The four CRISPR-generated benzimidazole-resistant C. elegans mutants were generously provided by Prof. Erik Andersen (Johns Hopkins University); PS312 and B178 were generously provided by Prof. Peter Roy (University of Toronto); all other strains were obtained from the Caenorhabditis Genetics Center (CGC, University of Minnesota). All strains were cultured and propagated at 20 °C on NGM (nematode growth medium) agar plates seeded with E. coli OP50 (Stiernagle, 2006)[56].
Liquid development and viability assays were adapted from a previously established chemical screening protocol (Burns et al.)[24]. In brief, a saturated culture of E. coli HB101 was concentrated 2-fold in liquid NGM and 40 μL of this suspension was distributed to each well of a 96-well flat-bottom culture plate. 0.5 μL chemical solution (or DMSO alone) was added to each well (1% DMSO v/v) using either a multi-channel pipette or a pinning tool (V&P Scientific). L1 worms synchronized from an embryo preparation performed the day prior were diluted to a concentration of ~2 worms/μL in M9 buffer; 10 μL worm suspension was then added to each well. Culture plates were sealed with parafilm and placed in a plastic container lined with wet paper towels to prevent evaporation. Containers were then incubated for 6 days at 20 °C with shaking at 165 rpm. Following incubation, 300 μL M9 was added to each well to decrease the turbidity of the HB101-NGM suspension. Single images of each microplate well were then taken on a Nikon Ti Eclipse inverted microscope (Nikon NIS Elements AR). Images were processed using Python scripts to isolate worm-associated pixels from background. Scores of worm development and viability were determined as the sum of worm-associated pixels in each well. Development/viability scores for each well were divided by the development /viability scores for the corresponding DMSO controls, resulting in a relative viability value for each chemical. At least three biological replicates were performed for each dose-response experiment; relative viability values were averaged across replicates.
Supplementary Table 2. Sensitivity of anthelmintic/nematicide-resistant strains to Class A, B, and C
benzimidazole complex I inhibitors.
LC50s were estimated from fitted dose-
response curves; all dose response data are the mean of at least three biological replicates.
Supplementary Table 2. Davie et al.

Cc1ccccc1OCCCCn1cnc2ccccc21 [Compound 7732524]
LC50 (read-out: C. elegans Development & Viability LC50, acr-23(ok2804)): 50.2 µM | LC50 (read-out: C. elegans Development & Viability LC50, avr-14(ad1302), avr-15(ad1051), glc-1(pk54)): 46.5 µM | LC50 (read-out: C. elegans Development & Viability LC50, ben-1(e1880)): 50 µM | LC50 (read-out: C. elegans Development & Viability LC50, bre-1(ye4)): 41.2 µM | LC50 (read-out: C. elegans Development & Viability LC50, mev-1(tr355)): 42.9 µM | LC50 (read-out: C. elegans Development & Viability LC50, slo-1(js379)): 31.4 µM | LC50 (read-out: C. elegans Development & Viability LC50, unc-29(e193)): 37.8 µM | dose response data (concentration step 1 of 13 (c108)): 0.998 and 1.000 | dose response data (concentration step 3 of 13 (c110)): 0.989 and 1.000 | dose response data (concentration step 4 of 13 (c111)): 1.000 and 0.845 | dose response data (concentration step 5 of 13 (c112)): 1.000 and 0.955 | dose response data (concentration step 6 of 13 (c113)): 1.000 and 0.835 | dose response data (concentration step 7 of 13 (c114)): 1.000 | dose response data (concentration step 8 of 13 (c115)): 1.000 and 0.746
